One assay concerns the target T1, human ENPP1 (Homo sapiens, UniProt P22413).
T1 construct: made in house
T1 sequence (P22413 1-925): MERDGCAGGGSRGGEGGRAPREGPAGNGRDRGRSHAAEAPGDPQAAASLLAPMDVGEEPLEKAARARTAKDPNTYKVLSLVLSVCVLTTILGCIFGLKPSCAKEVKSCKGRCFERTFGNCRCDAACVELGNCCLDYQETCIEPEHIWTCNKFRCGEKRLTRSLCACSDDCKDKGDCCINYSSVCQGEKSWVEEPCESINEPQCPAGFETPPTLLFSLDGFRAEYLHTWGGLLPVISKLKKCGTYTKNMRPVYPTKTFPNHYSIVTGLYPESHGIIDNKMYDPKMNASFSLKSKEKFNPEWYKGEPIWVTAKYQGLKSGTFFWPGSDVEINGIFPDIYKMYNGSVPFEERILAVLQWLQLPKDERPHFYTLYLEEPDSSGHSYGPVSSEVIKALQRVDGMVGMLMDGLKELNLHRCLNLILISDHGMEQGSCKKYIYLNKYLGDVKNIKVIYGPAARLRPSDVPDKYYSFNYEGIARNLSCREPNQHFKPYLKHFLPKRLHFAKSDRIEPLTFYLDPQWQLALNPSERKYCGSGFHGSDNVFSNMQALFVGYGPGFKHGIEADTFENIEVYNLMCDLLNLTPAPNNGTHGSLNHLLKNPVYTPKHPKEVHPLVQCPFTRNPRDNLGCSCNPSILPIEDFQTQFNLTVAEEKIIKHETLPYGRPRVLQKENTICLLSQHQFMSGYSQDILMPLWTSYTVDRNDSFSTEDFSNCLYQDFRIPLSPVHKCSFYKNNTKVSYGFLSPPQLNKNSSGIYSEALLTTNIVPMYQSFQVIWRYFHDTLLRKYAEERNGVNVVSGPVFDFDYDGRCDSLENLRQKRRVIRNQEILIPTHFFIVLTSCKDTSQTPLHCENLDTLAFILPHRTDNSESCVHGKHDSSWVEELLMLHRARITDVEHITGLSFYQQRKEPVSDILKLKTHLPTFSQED
Put plainly: ENPP1 assay with ATP substrate (Transcreener AMP2/GMP2 TR-FRET). The following applies: 1 hour at room temperature. The assay is classed as biochemical. The essentials: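 Reaction ran 1 h at room temperature in pH 7.5 Tris with MgCl2, TCEP, Tween 20 and 1% DMSO. ATP was added as a 300 nM stock and enzyme as an 8.5 μM stock. After EDTA stop, AMP was read by TR-FRET tracer displacement. Percent inhibition used enzyme/no-enzyme controls; IC50 was fitted with a variable slope.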
(TR-FRET usually uses a lanthanide donor and a delayed reading to cut background.)

A further assay has as its target T2, ENPP3 (Homo sapiens, UniProt O14638).
T2 sequence (O14638 1-875): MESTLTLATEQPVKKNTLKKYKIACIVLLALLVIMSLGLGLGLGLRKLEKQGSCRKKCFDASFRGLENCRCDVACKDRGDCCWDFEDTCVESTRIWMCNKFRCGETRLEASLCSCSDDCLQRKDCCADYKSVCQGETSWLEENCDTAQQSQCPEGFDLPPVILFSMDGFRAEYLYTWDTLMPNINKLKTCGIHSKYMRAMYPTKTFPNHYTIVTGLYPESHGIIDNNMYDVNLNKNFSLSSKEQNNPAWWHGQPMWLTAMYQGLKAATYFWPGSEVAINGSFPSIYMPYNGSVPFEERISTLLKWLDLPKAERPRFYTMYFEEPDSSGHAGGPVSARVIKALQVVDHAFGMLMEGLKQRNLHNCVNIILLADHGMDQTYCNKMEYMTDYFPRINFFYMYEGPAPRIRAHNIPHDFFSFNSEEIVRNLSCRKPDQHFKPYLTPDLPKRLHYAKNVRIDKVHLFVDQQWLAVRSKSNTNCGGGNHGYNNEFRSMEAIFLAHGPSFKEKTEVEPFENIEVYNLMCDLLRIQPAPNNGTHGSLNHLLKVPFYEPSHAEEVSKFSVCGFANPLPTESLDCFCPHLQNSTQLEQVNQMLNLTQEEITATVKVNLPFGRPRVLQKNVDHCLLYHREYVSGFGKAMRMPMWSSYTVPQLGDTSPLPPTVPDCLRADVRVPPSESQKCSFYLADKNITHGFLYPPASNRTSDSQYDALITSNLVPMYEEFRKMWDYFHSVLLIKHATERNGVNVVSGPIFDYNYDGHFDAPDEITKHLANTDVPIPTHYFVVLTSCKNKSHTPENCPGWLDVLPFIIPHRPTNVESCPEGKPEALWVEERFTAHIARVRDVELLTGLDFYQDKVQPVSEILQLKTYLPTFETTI
Put plainly: ENPP3 Km ATP assay. The following applies: ATP at Km. The assay is classed as biochemical.

On to `CC(Nc1ncnc2scc(-c3ccccc3)c12)c1ccc(S(N)(=O)=O)cc1` (stereo not shown) [Example 1.65, 4-(1-(5-Phenylthieno[2,3-d]pyrimidin-4-yl)aminoethyl)benzenesulfonamide], for which the IC50 on human ENPP1 and at ENPP3 was 1 to 20 µM each time.

As to `NS(=O)(=O)N1CCC(CNc2ncnc3scc(-c4ccccc4)c23)CC1` [Example 1.66, 4-(5-Phenylthieno[2,3-d]pyrimidin-4-yl)aminomethyl-1-piperidinesulfonamide], the IC50 was 0.1 to 1 µM at human ENPP1 and 1 to 20 µM against ENPP3.

Take `NS(=O)(=O)N1CCC(CNc2nc(-c3ccccn3)nc3scc(-c4ccccc4)c23)CC1` [Example 1.67, 4-((5-Phenyl-2-(2-pyridyl)thieno[2,3-d]pyrimidin-4-yl)aminomethyl)-1-piperidinesulfonamide]: the concentration for half-maximal inhibition (IC50) lay within 0.1 to 1 µM on human ENPP1 and 1 to 20 µM at ENPP3.

As for `NS(=O)(=O)c1ccc(CNc2ncnc3scc(C4=CCCCC4)c23)cc1` [Example 1.69, 4-((5-(1-Cyclohexenyl)thieno[2,3-d]pyrimidin-4-yl)aminomethyl)benzenesulfonamide], the values for the IC50 against human ENPP1 and on ENPP3 were over 20 µM and 0.1 to 1 µM, respectively.

As for `NS(=O)(=O)c1ccc(COc2ncnc3scc(-c4ccccc4)c23)cc1` [Example 1.70, 4-((5-Phenylthieno[2,3-d]pyrimidin-4-yl)oxymethyl)benzenesulfonamide], the IC50 against human ENPP1 fell in the range of 0.1 to 1 µM; against ENPP3, 1 to 20 µM.

For the molecule `Cn1ncc2c(NCc3ccc(S(N)(=O)=O)c(F)c3)ncnc21` [Example 2.1, 2-Fluoro-4-(((1-methyl-1H-pyrazolo[3,4-d]pyrimidin-4-yl)amino)methyl)-benzenesulfonamide], the values for the IC50 at human ENPP1 and on ENPP3 were under 0.1 µM and 1 to 20 µM, respectively.

`Cc1cc(S(N)(=O)=O)ccc1CNc1ncnc2c1cnn2C` [Example 2.2, 3-Methyl-4-(((1-methyl-1H-pyrazolo[3,4-d]pyrimidin-4-yl)amino)methyl)-benzenesulfonamide]: the figures for the IC50 against human ENPP1 and against ENPP3 were 0.1 to 1 µM and 1 to 20 µM, respectively.

As to `COc1cc(S(N)(=O)=O)ccc1CNc1ncnc2c1cnn2C` [Example 2.3, 3-Methoxy-4-(((1-methyl-1H-pyrazolo[3,4-d]pyrimidin-4-yl)amino)methyl)-benzenesulfonamide], the IC50 fell in the range of 0.1 to 1 µM at human ENPP1 and 1 to 20 µM against ENPP3.

In the case of `Cn1ncc2c(NCc3ccc(S(N)(=O)=O)c(Cl)c3)ncnc21` [Example 2.4, 2-Chloro-4-(((1-methyl-1H-pyrazolo[3,4-d]pyrimidin-4-yl)amino)methyl)-benzenesulfonamide], the IC50 was in the range of 0.1 to 1 µM against human ENPP1 and 1 to 20 µM at ENPP3.

With `Cn1ncc2c(N3CCC(NCCCc4ccncc4)CC3)ncnc21` [Example 2.5, 1-(1-Methyl-1H-pyrazolo[3,4-d]pyrimidin-4-yl)-N-(3-(pyridin-4-yl)propyl)piperidin-4-amine], the IC50 on human ENPP1 and on ENPP3 was over 20 µM throughout.

Turning to `CN1CCN(c2nc(N3CCC(NCCCc4ccncc4)CC3)c3cnn(C)c3n2)CC1` [Example 2.6, 1-(1-Methyl-6-(4-methylpiperazin-1-yl)-1H-pyrazolo[3,4-d]pyrimidin-4-yl)-N-(3-(pyridin-4-yl)propyl)piperidin-4-amine], the concentration for half-maximal inhibition (IC50) against human ENPP1 and against ENPP3 was over 20 µM in each case.

On to `Cn1ncc2c(N3CCC(NCCCc4ccncc4)CC3)nc(-c3ccccc3)nc21` [Example 2.7, 1-(1-Methyl-6-phenyl-1H-pyrazolo[3,4-d]pyrimidin-4-yl)-N-(3-(pyridin-4-yl)propyl)piperidin-4-amine], for which the IC50 on human ENPP1 and on ENPP3 was over 20 µM in each case.

Turning to `Cn1cnc2c(NCc3ccc(S(N)(=O)=O)cc3)ncnc21` [Example 2.8, 4-(((9-Methyl-9H-purin-6-yl)amino)methyl)benzenesulfonamide], the IC50 against human ENPP1 is over 20 µM; at ENPP3 it was 1 to 20 µM.

With `Cn1ncc2c(NCc3ccc(S(N)(=O)=O)cc3)nc(-c3ccccn3)nc21` [Example 2.10, 4-(((1-Methyl-6-(pyridin-2-yl)-1H-pyrazolo[3,4-d]pyrimidin-4-yl)amino)methyl)-benzenesulfonamide], the IC50 was under 0.1 µM against human ENPP1 and 1 to 20 µM on ENPP3.

Consider `Cn1ncc2c(NCc3ccc(S(N)(=O)=O)cc3)nc(N3CCCCC3)nc21` [Example 2.14, 4-(((1-Methyl-6-(piperidin-1-yl)-1H-pyrazolo[3,4-d]pyrimidin-4-yl)amino)methyl)-benzenesulfonamide], for which the values for the IC50 against human ENPP1 and against ENPP3 were 1 to 20 µM and 0.1 to 1 µM, respectively.

As to `Cn1ncc2c(N3CCC(NCCCc4ccncc4)CC3)nc(-c3ccccn3)nc21` [Example 2.20, 1-(1-Methyl-6-(pyridin-2-yl)-1H-pyrazolo[3,4-d]pyrimidin-4-yl)-N-(3-(pyridin-4-yl)propyl)piperidin-4-amine], the IC50 at human ENPP1 and at ENPP3 was over 20 µM each time.

As to `Cn1ncc2c(NCc3ccc(S(N)(=O)=O)s3)nc(-c3ccccn3)nc21` [Example 2.24, 5-(((1-Methyl-6-(pyridin-2-yl)-1H-pyrazolo[3,4-d]pyrimidin-4-yl)amino)methyl)thiophene-2-sulfonamide], the IC50 on human ENPP1 and at ENPP3 was 0.1 to 1 µM throughout.

For `Cn1ncc2c(NCc3ccc(S(N)(=O)=O)cc3)ncnc21` [Example 2.25, 4-(((1-Methyl-1H-pyrazolo[3,4-d]pyrimidin-4-yl)amino)methyl)benzenesulfonamide], the IC50 was under 0.1 µM at human ENPP1 and 1 to 20 µM against ENPP3.

`Cc1nc(NCc2ccc(S(N)(=O)=O)cc2)c2cnn(C)c2n1` [Example 2.26, 4-(((1,6-Dimethyl-1H-pyrazolo[3,4-d]pyrimidin-4-yl)amino)methyl)benzenesulfonamide]: the IC50 at human ENPP1 is under 0.1 µM; against ENPP3, 0.1 to 1 µM.

On to `CNc1nc(NCc2ccc(S(N)(=O)=O)cc2)c2cnn(C)c2n1` [Example 2.27, 4-(((1-Methyl-6-(methylamino)-1H-pyrazolo[3,4-d]pyrimidin-4-yl)amino)methyl)-benzenesulfonamide], for which the IC50 at human ENPP1 is under 0.1 µM; against ENPP3 it was 0.1 to 1 µM.

In the case of `CN(C)c1nc(NCc2ccc(S(N)(=O)=O)cc2)c2cnn(C)c2n1` [Example 2.28, 4-(((6-(Dimethylamino)-1-methyl-1H-pyrazolo[3,4-d]pyrimidin-4-yl)amino)methyl)-benzenesulfonamide], the IC50 against human ENPP1 was in the range of 1 to 20 µM; at ENPP3 it was 0.1 to 1 µM.

Take `Cn1ncc2c(NCc3ccc(S(N)(=O)=O)cc3)nc(N3CCOCC3)nc21` [Example 2.29, 4-(((1-Methyl-6-morpholino-1H-pyrazolo[3,4-d]pyrimidin-4-yl)amino)methyl)-benzenesulfonamide]: the figures for the IC50 at human ENPP1 and on ENPP3 were over 20 µM and 0.1 to 1 µM, respectively.

Turning to `Cn1ncc2c(NCc3ccc(S(N)(=O)=O)cc3)nc(NC3CCCCC3)nc21` [Example 2.30, 4-(((6-(Cyclohexylamino)-1-methyl-1H-pyrazolo[3,4-d]pyrimidin-4-yl)amino)methyl)-benzenesulfonamide], the IC50 against human ENPP1 and on ENPP3 was 1 to 20 µM in each case.

As a reminder, the IC50 is the concentration at which inhibition is half-maximal.

The values above are taken from patent US12643910B2, “Substituted pyrazolo[3,4-b]pyridines as ectonucleotide pyrophosphatase/phosphodiesterase 1 (ENPP1) modulators” (SANFORD BURNHAM PREBYS MEDICAL DISCOVERY INSTITUTE, priority 2019, dated 2026).
